Measurements published in patent US4684664A, “Derivatives of β-(4-isocyano-1,2,3,4-diepoxycyclopentyl) acrylic acid” (Kureha Kagaku Kogyo Kabushiki Kaisha, priority 1984, dated 1987).
Values after ≈ are worked out from the molar mass of the structure shown.

How the values were obtained:
Format in all cases: cell-based
[1] = system: Klebsiella pneumoniae PCI-602; assay: Antibacterial activity, agar-dilution MIC, organism No. 7; details: Klebsiella pneumoniae, PCI602; Organism No. 7, bouillon-agar; read-out: Minimum Inhibitory Concentration
Description: (§1) Agar-dilution method was used for determination of the antibacterial activity and antifungal activity while using bouillon-agar culture medium, and the minimum inhibitory concentration of the specimen was expressed by μg/ml of the culture medium.

[2] = system: Proteus mirabilis IFO 3849; assay: Antibacterial activity, agar-dilution MIC, organism No. 19; details: Proteus mirabilis, IFO3849; Organism No. 19, bouillon-agar; read-out: Minimum Inhibitory Concentration
Description: as §1

Proteus vulgaris HX-19 = assay: Antibacterial activity, agar-dilution MIC, organism No. 21; details: Proteus vulgaris, HX19; Organism No. 21, bouillon-agar; read-out: Minimum Inhibitory Concentration
Description: as §1

[3] = system: Enterobacter aerogenes ATCC 13048; assay: Antibacterial activity, agar-dilution MIC, organism No. 23; details: Klebsiella aerogenes, ATCC13048; Organism No. 23, bouillon-agar; read-out: Minimum Inhibitory Concentration
Description: as §1

[4] = system: Pseudomonas aeruginosa NCTC 10490; assay: Antibacterial activity, agar-dilution MIC, organism No. 16; details: Pseudomonas aeruginosa, NCTC10490; Organism No. 16, bouillon-agar; read-out: Minimum Inhibitory Concentration
Description: as §1

Proteus vulgaris OX-19 = assay: Antibacterial activity, agar-dilution MIC, organism No. 20; details: Proteus vulgaris, OX19; Organism No. 20, bouillon-agar; read-out: Minimum Inhibitory Concentration
Description: as §1

[5] = system: Streptococcus faecium IFO 3826; assay: Antibacterial activity, agar-dilution MIC, organism No. 27; details: Enterococcus faecium, IFO3826; Organism No. 27, bouillon-agar; read-out: Minimum Inhibitory Concentration
Description: as §1

[6] = system: Mycoplasma pneumoniae IID817; assay: Antimycoplasmal activity, MIC by phenol red colour change, organism No. 28; details: Mycoplasma, IID817; Organism No. 28, PPLO broth + 1% glucose, 37° C.; read-out: Minimum Inhibitory Concentration (MIC)
Method: Mycoplasma pneumoniae IID817 was used as the test microorganism in a culture medium prepared by adding 1% of glucose to "PPLO broth (manufactured by Difco Co.) liquid culture medium" at 37° C. with phenol red as an indicator, thereby culturing the test microorganism.

[7] = system: Staphylococcus aureus Terajima; assay: Antibacterial activity, agar-dilution MIC, organism No. 2; details: Staphylococcus aureus; Organism No. 2, bouillon-agar; read-out: Minimum Inhibitory Concentration
Description: as §1

[8] = system: Streptococcus pyogenes IFO 3340; assay: Antibacterial activity, agar-dilution MIC, organism No. 26; details: Streptococcus pyogenes, IFO3340; Organism No. 26, bouillon-agar; read-out: Minimum Inhibitory Concentration
Description: as §1

[9] = system: Escherichia coli NIHJ-JC-2; assay: Antibacterial activity, agar-dilution MIC, organism No. 5; details: Escherichia coli, NIHJJC2; Organism No. 5, bouillon-agar; read-out: Minimum Inhibitory Concentration
Description: as §1

[10] = system: Micrococcus luteus ATCC 9341; assay: Antibacterial activity, agar-dilution MIC, organism No. 25; details: Micrococcus luteus, ATCC9341; Organism No. 25, bouillon-agar; read-out: Minimum Inhibitory Concentration
Description: as §1

[11] = system: Proteus morganii IFO 3848; assay: Antibacterial activity, agar-dilution MIC, organism No. 18; details: Morganella morganii, IFO3848; Organism No. 18, bouillon-agar; read-out: Minimum Inhibitory Concentration
Description: as §1

[12] = system: Streptococcus pyogenes Cook; assay: Antibacterial activity, agar-dilution MIC, organism No. 4; details: Streptococcus pyogenes; Organism No. 4, bouillon-agar; read-out: Minimum Inhibitory Concentration
Description: as §1

[13] = system: Salmonella paratyphi-A 1015; assay: Antibacterial activity, agar-dilution MIC, organism No. 10; details: Salmonella enterica, PARATYPHI, read-out: Minimum Inhibitory Concentration
Description: as §1

[14] = system: Bacillus subtilis ATCC 6633; assay: Antibacterial activity, agar-dilution MIC, organism No. 14; details: Bacillus subtilis, ATCC6633; Organism No. 14, bouillon-agar; read-out: Minimum Inhibitory Concentration
Description: as §1

[15] = system: Salmonella shottmuelleri 8006; assay: Antibacterial activity, agar-dilution MIC, organism No. 11; details: Salmonella, 8006; Organism No. 11, bouillon-agar; read-out: Minimum Inhibitory Concentration
Description: as §1

Enterobacter cloacae 963 = assay: Antibacterial activity, agar-dilution MIC, organism No. 24; details: Enterobacter cloacae, 963; Organism No. 24, bouillon-agar; read-out: Minimum Inhibitory Concentration
Description: as §1

[16] = system: Aspergillus niger IFO 6342; assay: Antifungal activity, agar-dilution MIC, organism No. 30; details: Aspergillus niger, IFO6342; Organism No. 30, bouillon-agar; read-out: Minimum Inhibitory Concentration
Description: as §1

[17] = system: Staphylococcus aureus MS 353; assay: Antibacterial activity, agar-dilution MIC, organism No. 3; details: Staphylococcus aureus, MS353; Organism No. 3, bouillon-agar; read-out: Minimum Inhibitory Concentration
Description: as §1

[18] = system: Pseudomonas aeruginosa PAO 1; assay: Antibacterial activity, agar-dilution MIC, organism No. 17; details: Pseudomonas aeruginosa, PAO1; Organism No. 17, bouillon-agar; read-out: Minimum Inhibitory Concentration
Description: as §1

[19] = system: Candida albicans IAM 4905; assay: Antifungal activity, agar-dilution MIC, organism No. 29; details: Candida albicans, IAM4905; Organism No. 29, bouillon-agar; read-out: Minimum Inhibitory Concentration
Description: as §1

[20] = system: Salmonella typhimurium IID 971; assay: Antibacterial activity, agar-dilution MIC, organism No. 8; details: Salmonella enterica; Organism No. 8, bouillon-agar; read-out: Minimum Inhibitory Concentration
Description: as §1

Salmonella typhi 901 = assay: Antibacterial activity, agar-dilution MIC, organism No. 9; details: Salmonella enterica, TYPHI, read-out: Minimum Inhibitory Concentration
Description: as §1

[21] = system: Staphylococcus aureus FDA 209PJc-1; assay: Antibacterial activity, agar-dilution MIC, organism No. 1; details: Staphylococcus aureus, FDA209PJC1; Organism No. 1, bouillon-agar; read-out: Minimum Inhibitory Concentration
Description: as §1

[22] = system: Salmonella enteritidis G 14; assay: Antibacterial activity, agar-dilution MIC, organism No. 12; details: Salmonella enterica, ENTERITIDIS; Organism No. 12, bouillon-agar; read-out: Minimum Inhibitory Concentration
Description: as §1

[23] = system: Escherichia coli K12 C600 IAM 1264; assay: Antibacterial activity, agar-dilution MIC, organism No. 6; details: Escherichia coli, IAM1264; Organism No. 6, bouillon-agar; read-out: Minimum Inhibitory Concentration
Description: as §1

[24] = system: Pseudomonas aeruginosa IFO 3445; assay: Antibacterial activity, agar-dilution MIC, organism No. 15; details: Pseudomonas aeruginosa, IFO3445; Organism No. 15, bouillon-agar; read-out: Minimum Inhibitory Concentration
Description: as §1

[25] = system: Proteus rettgeri IFO 3850; assay: Antibacterial activity, agar-dilution MIC, organism No. 22; details: Providencia rettgeri, IFO3850; Organism No. 22, bouillon-agar; read-out: Minimum Inhibitory Concentration
Description: as §1

| Structure (SMILES) | MIC [1] | MIC [2] | MIC (Proteus vulgaris HX-19) | MIC [3] | MIC [4] | MIC (Proteus vulgaris OX-19) | MIC [5] | MIC [6] | MIC [7] | MIC [8] | MIC [9] | MIC [10] | MIC [11] | MIC [12] | MIC [13] | MIC [14] | MIC [15] | MIC (Enterobacter cloacae 963) | MIC [16] | MIC [17] | further results |
| --- | --- | --- | --- | --- | --- | --- | --- | --- | --- | --- | --- | --- | --- | --- | --- | --- | --- | --- | --- | --- | --- |
| [C-]#[N+]C12CC3(/C=C/C(=O)Nc4ccccc4C)OC3C1O2 (stereo not drawn) [compound 39] | 1.56 mg/L (≈ 5.53 µM) | > 200 mg/L | < 0.05 mg/L | > 200 mg/L | > 200 mg/L | 6.25 mg/L (≈ 22.1 µM) | 200 mg/L (≈ 708 µM) | < 0.2 mg/L | 3.13 mg/L (≈ 11.1 µM) | 25 mg/L (≈ 88.6 µM) | > 200 mg/L | < 0.05 mg/L | 100 mg/L (≈ 354 µM) | 100 mg/L (≈ 354 µM) | 12.5 mg/L (≈ 44.3 µM) | > 200 mg/L | 3.13 mg/L (≈ 11.1 µM) | 200 mg/L (≈ 708 µM) | 1.56 mg/L (≈ 5.53 µM) | 1.56 mg/L (≈ 5.53 µM) | MIC [18]: > 200 mg/L; MIC [19]: 0.39 mg/L (≈ 1.38 µM); MIC [20]: > 200 mg/L; MIC (Salmonella typhi 901): 25 mg/L (≈ 88.6 µM); MIC [21]: 0.78 mg/L (≈ 2.76 µM); MIC [22]: 50 mg/L (≈ 177 µM); MIC [23]: > 200 mg/L; MIC [24]: > 200 mg/L; MIC [25]: > 200 mg/L |
| [C-]#[N+]C12CC3(/C=C/C(=O)Nc4ccc(C)cc4)OC3C1O2 (stereo not drawn) [compound 37] | 0.1 mg/L (≈ 0.354 µM) | 200 mg/L (≈ 708 µM) | < 0.05 mg/L | 100 mg/L (≈ 354 µM) | > 200 mg/L | 0.2 mg/L (≈ 0.708 µM) | 25 mg/L (≈ 88.6 µM) | 0.2 mg/L | 1.56 mg/L (≈ 5.53 µM) | 1.56 mg/L (≈ 5.53 µM) | 25 mg/L (≈ 88.6 µM) | < 0.05 mg/L | 12.5 mg/L (≈ 44.3 µM) | 12.5 mg/L (≈ 44.3 µM) | 0.2 mg/L (≈ 0.708 µM) | 6.25 mg/L (≈ 22.1 µM) | 0.2 mg/L (≈ 0.708 µM) | 50 mg/L (≈ 177 µM) | 1.56 mg/L (≈ 5.53 µM) | 0.39 mg/L (≈ 1.38 µM) | MIC [18]: > 200 mg/L; MIC [19]: 0.39 mg/L (≈ 1.38 µM); MIC [20]: 6.25 mg/L (≈ 22.1 µM); MIC (Salmonella typhi 901): 1.56 mg/L (≈ 5.53 µM); MIC [21]: 0.39 mg/L (≈ 1.38 µM); MIC [22]: 1.56 mg/L (≈ 5.53 µM); MIC [23]: 25 mg/L (≈ 88.6 µM); MIC [24]: > 200 mg/L; MIC [25]: 3.13 mg/L (≈ 11.1 µM) |
| [C-]#[N+]C12CC3(/C=C/C(=O)Nc4ccc(F)cc4)OC3C1O2 (stereo not drawn) [compound 43] | 0.78 mg/L (≈ 2.72 µM) | 12.5 mg/L (≈ 43.7 µM) | 0.39 mg/L (≈ 1.36 µM) | > 200 mg/L | > 200 mg/L | 0.39 mg/L (≈ 1.36 µM) | 12.5 mg/L (≈ 43.7 µM) | < 0.2 mg/L | 3.13 mg/L (≈ 10.9 µM) | 3.13 mg/L (≈ 10.9 µM) | 6.25 mg/L (≈ 21.8 µM) | 0.2 mg/L (≈ 0.699 µM) | 0.39 mg/L (≈ 1.36 µM) | 25 mg/L (≈ 87.3 µM) | 0.78 mg/L (≈ 2.72 µM) | 6.25 mg/L (≈ 21.8 µM) | 0.78 mg/L (≈ 2.72 µM) | 12.5 mg/L (≈ 43.7 µM) | 1.56 mg/L (≈ 5.45 µM) | 1.56 mg/L (≈ 5.45 µM) | MIC [18]: > 200 mg/L; MIC [19]: 0.39 mg/L (≈ 1.36 µM); MIC [20]: 6.25 mg/L (≈ 21.8 µM); MIC (Salmonella typhi 901): 1.56 mg/L (≈ 5.45 µM); MIC [21]: 0.78 mg/L (≈ 2.72 µM); MIC [22]: 3.13 mg/L (≈ 10.9 µM); MIC [23]: 25 mg/L (≈ 87.3 µM); MIC [24]: > 200 mg/L; MIC [25]: 1.56 mg/L (≈ 5.45 µM) |
